PubChem BioAssay (NCI)
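Where inhibition never reached the appropriate level, the endpoint shown equals the highest concentration tested. Otherwise, values were interpolated linearly from a five-concentration, 48-hour dose response in 96-well plates. TGI marks complete inhibition of growth.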

How the values were obtained:
Test in all cases: NCI anticancer screen, dose series, 48 h
[1] = tested on: 786-0 renal
[2] = tested on: HOP-92 NSCLC
[3] = tested on: UACC-257 melanoma
[4] = tested on: A498 renal
[5] = tested on: U251 CNS
[6] = tested on: SNB-19 CNS
[7] = tested on: SK-MEL-5 melanoma
[8] = tested on: CCRF-CEM leukemia
[9] = tested on: SW-620 colon
[10] = tested on: OVCAR-5 ovarian
[11] = tested on: TK-10 renal
[12] = tested on: HCT-15 colon
[13] = tested on: RPMI-8226 leukemia
[14] = tested on: HCC-2998 colon
[15] = tested on: T-47D breast
[16] = tested on: NCI-H522 lung
[17] = tested on: BT-549 breast
[18] = tested on: MALME-3M melanoma
[19] = tested on: CAKI-1 renal
[20] = tested on: SN12C renal
[21] = tested on: SK-OV-3 ovarian
[22] = tested on: OVCAR-8 ovarian
[23] = tested on: OVCAR-4 ovarian
[24] = tested on: COLO 205 colon
[25] = tested on: DU-145 prostate
[26] = tested on: SK-MEL-2 melanoma
[27] = tested on: NCI/ADR-RES ovarian
[28] = tested on: RXF 393 renal
[29] = tested on: SK-MEL-28 melanoma
[30] = tested on: MOLT-4 leukemia
[31] = tested on: UACC-62 melanoma
[32] = tested on: NCI-H226 lung
[33] = tested on: SF-268 CNS
[34] = tested on: M14 melanoma
[35] = tested on: SF-295 CNS
[36] = tested on: IGROV1 ovarian
[37] = tested on: NCI-H460 lung
[38] = tested on: SNB-75 CNS
[39] = tested on: PC-3 prostate
[40] = tested on: MDA-MB-435
[41] = tested on: OVCAR-3 ovarian
[42] = tested on: LOX IMVI melanoma
[43] = tested on: MDA-MB-231 breast
[44] = tested on: A549 NSCLC
[45] = tested on: HOP-62 NSCLC
[46] = tested on: HT29 colon
[47] = tested on: ACHN renal
[48] = tested on: KM12 colon
[49] = tested on: HCT-116 colon
[50] = tested on: UO-31 renal
[51] = tested on: HS 578T breast
[52] = tested on: MDA-N
[53] = tested on: NCI-H23 lung
[54] = tested on: K-562 leukemia

`O=C(Cn1c2ccc(Br)cc2c2nc3ccccc3nc21)Nc1ccccc1` was tested, and the TGI [1] was 28.7 µM, the TGI [2] was 32.4 µM and the TGI [3] was > 100 µM. The TGI [4] was > 100 µM, the TGI [5] was 73.5 µM and the TGI [6] was > 100 µM. For the same compound, the TGI [7] was > 100 µM, the TGI [8] was > 100 µM and the TGI [9] was 66.8 µM. For the same compound, the TGI [10] was > 100 µM, the TGI [11] was > 100 µM and the TGI [12] was 70.5 µM. For the same compound, the TGI [13] was > 100 µM, the TGI [14] was > 100 µM and the TGI [15] was 57.1 µM. For the same compound, the TGI [16] was 40.5 µM, the TGI [17] was > 100 µM and the TGI [18] was 79 µM. For the same compound, the TGI [19] was 86.9 µM, the TGI [20] was > 100 µM and the TGI [21] was > 100 µM. For the same compound, the TGI [22] was 28.4 µM, the TGI [23] was 99.4 µM and the TGI [24] was > 100 µM. For the same compound, the TGI [25] was > 100 µM, the TGI [26] was > 100 µM and the TGI [27] was 45.1 µM. For the same compound, the TGI [28] was 68.7 µM, the TGI [29] was > 100 µM and the TGI [30] was > 100 µM. The TGI [31] was > 100 µM, the TGI [32] was 82.7 µM and the TGI [33] was > 100 µM. The TGI [34] was > 100 µM, the TGI [35] was > 100 µM and the TGI [36] was 56.2 µM. For the same compound, the TGI [37] was > 100 µM, the TGI [38] was 89.4 µM and the TGI [39] was 46.5 µM. The TGI [40] was > 100 µM, the TGI [41] was > 100 µM and the TGI [42] was 29.2 µM. The TGI [43] was 34.2 µM, the TGI [44] was 38.2 µM and the TGI [45] was > 100 µM. For the same compound, the TGI [46] was > 100 µM, the TGI [47] was > 100 µM and the TGI [48] was > 100 µM. The TGI [49] was 27.6 µM, the TGI [50] was > 100 µM and the TGI [51] was 76.9 µM. For the same compound, the TGI [52] was > 100 µM, the TGI [53] was 93.6 µM and the TGI [54] was > 100 µM.
